This test deals with algae sample. In words: preservation of an algae sample in a preserving solution. The arrangement: species or system algae (e.g., sugar kelp, ribbon kelp, bull kelp, brown alga). Conditions: for preservation of the algae by the preserving solution: for the target preserving duration; for critical preservation solution concentration: temperature excursions between 0° F. and 140° F., wet mass basis relative to algae mass. An excerpt: The critical preservation solution concentration can depend on the amount of time the algae sample is to be preserved for, a preservation temperature, an algae species (or other taxonomical rank such as phylum, class, order, family, genus, intermediate ranks therebetween associated with the algae), humidity, moisture content, wet mass content of the algae sample (e.g., composition of the wet mass of the algae sample), dry mass content of the algae sample (e.g., composition of the dry mass of the algae sample), and/or other suitable. […] However, other critical values can be determined and/or arrived at (e.g., by controlling temperature excursions particularly high temperature range, for different types of algae, using a mixture of preserving agents to reduce the concentration of any single preserving agent, based on the amount of time to preserve the algae, etc.).
Preserving the received algae sample S300 preferably functions to extend a lifetime of the algae sample without significant degradation of the algae sample and/or products thereof or derived therefrom. S300 can preserve an as received algae sample (e.g., from S100, fresh harvested algae sample, etc.), a processed algae sample (e.g., from S200, an algae sample that was received after one or more processing steps such as in S200 or S400 has been performed, etc.), a previously preserved algae sample (e.g., preserved according to S300, preserved in a manner different from S300, dried algae sample, etc.), and/or any suitable algae sample.
The algae sample is typically not agitated (e.g., mixed) during (e.g., throughout) preservation (e.g., to simplify the preservation process). Alternatively stated, the algae sample is preferably mixed at most only once (e.g., at the beginning of S300 to homogenize the preserving solution and algae sample) and remains unmixed thereafter. However, the algae sample can be agitated during preservation (e.g., according to a schedule, at predetermined times, at a predetermined frequency, etc.).
The algae sample is typically preserved at approximately room temperature (e.g., an ambient temperature of an environment the algae sample is stored at). For instance, the algae sample can be preserved at a temperature between about 50° F. to 110° F. However, the algae sample can be stored at an elevated temperature (e.g., >110° F.), at a refrigeration temperature (e.g., 30-50° F.), freezing temperature (e.g., <about 30° F.), and/or at any suitable temperature. In some variants, the preserved algae sample can undergo temperature excursions as cold as about 0° F. and as high as 140° F. However, additionally or alternatively, the temperature can be controlled to within a target temperature range (e.g., a preservation temperature, a preservation temperature excursion range, etc.).
The algae sample is typically not fully sealed during preservation (e.g., evaporation of solvent, preservative, etc. can occur such as because the sample is loosely covered). […] For example, the algae sample can be preserved in a container where a lid is placed on the container to close the container but where the lid need not form a seal (e.g., is not a hermetic lid).

As to `O=C([O-])[O-].[Na+].[Na+]` [sodium carbonate], the “preservation of the algae by the preserving solution” value (shortened to “preservation of the algae”) (less than 9% carbonate (e.g., 5%)) is listed as “did not preserve the algae”. Further, the “critical preservation solution concentration” value (preserve for 2 months or less) is on record as at least 9 wt %.
As for `CCO` [alcohol], for the setting “5% alcohol solution, target about 1 year of preservation”, the “preservation duration before product degradation, mold growth, etc. was detected” value was “about 2 months”. In addition, the “preservation of the algae” value (less than 8% alcohol (e.g., 1%, 3%, 5%)) is listed as “did not preserve the algae”. In addition, the “critical preservation solution concentration” value is given as “at least 5 wt %” (preserve for 2 months or less) and “at least 8 wt %” (preserve for 12 months or less).
Take benzoate: the “preservation of the algae” value (less than 0.5% benzoate (e.g., 0.1%)) is reported as “did not preserve the algae”.

For the origin of these results see patent publication US20240409878A1, “SYSTEM AND METHOD FOR PRESERVING ALGAE” (Macro Oceans Inc., priority 2023, published 2024).
